# Reference: US20220388964A1 (HiberCell, Inc., priority 2019, published 2022)
# Molecular target: GCN2 (Homo sapiens, UniProt Q9P2K8)
# Experiment: TR-FRET biochemical assay for inhibition of GCN2 (Example 106, for Example 1-4BB)
# Settings: Table 9
# GCN2, sequence (Q9P2K8 whole entry): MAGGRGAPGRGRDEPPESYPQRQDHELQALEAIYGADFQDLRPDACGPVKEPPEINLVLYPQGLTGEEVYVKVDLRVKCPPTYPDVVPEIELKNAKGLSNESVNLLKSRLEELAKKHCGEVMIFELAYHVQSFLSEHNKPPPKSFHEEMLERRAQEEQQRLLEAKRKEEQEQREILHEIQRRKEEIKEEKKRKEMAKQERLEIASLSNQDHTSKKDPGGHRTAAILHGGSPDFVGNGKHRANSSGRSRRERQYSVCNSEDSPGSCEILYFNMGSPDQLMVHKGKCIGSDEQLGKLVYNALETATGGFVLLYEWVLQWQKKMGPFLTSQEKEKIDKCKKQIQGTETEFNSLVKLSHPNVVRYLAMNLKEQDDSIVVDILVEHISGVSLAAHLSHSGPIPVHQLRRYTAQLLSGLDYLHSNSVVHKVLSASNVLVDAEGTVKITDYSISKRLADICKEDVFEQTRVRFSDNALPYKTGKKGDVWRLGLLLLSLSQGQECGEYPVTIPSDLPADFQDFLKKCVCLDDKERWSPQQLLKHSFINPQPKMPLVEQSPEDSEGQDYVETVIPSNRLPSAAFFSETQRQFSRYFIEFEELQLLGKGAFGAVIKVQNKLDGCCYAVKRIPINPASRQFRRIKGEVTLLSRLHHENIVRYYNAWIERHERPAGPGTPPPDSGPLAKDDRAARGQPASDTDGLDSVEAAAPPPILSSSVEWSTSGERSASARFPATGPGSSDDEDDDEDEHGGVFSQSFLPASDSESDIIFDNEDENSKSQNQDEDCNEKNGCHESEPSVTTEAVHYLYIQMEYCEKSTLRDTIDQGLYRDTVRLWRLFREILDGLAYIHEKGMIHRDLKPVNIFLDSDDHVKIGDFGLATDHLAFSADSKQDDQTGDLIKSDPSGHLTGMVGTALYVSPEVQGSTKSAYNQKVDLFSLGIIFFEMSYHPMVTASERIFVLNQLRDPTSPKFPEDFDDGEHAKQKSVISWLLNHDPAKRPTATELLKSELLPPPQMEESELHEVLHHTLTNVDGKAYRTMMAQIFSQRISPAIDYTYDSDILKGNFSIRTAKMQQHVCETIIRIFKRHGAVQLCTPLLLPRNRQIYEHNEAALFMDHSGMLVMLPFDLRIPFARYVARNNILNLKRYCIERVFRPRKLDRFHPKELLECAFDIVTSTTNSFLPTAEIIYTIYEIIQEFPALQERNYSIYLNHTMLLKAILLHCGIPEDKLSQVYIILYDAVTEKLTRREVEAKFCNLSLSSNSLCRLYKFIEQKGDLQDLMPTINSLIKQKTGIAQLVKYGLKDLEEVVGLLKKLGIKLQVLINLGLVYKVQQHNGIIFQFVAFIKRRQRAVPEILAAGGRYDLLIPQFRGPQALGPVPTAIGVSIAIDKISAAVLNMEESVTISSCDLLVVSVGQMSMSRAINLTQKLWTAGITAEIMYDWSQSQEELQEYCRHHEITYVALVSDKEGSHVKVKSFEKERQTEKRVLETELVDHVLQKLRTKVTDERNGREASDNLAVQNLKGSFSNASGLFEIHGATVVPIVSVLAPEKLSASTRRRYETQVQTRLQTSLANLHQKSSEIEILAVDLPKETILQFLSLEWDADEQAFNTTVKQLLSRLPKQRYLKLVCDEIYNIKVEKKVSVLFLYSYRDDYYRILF
row,SMILES,IC50 [nM]
1,"COc1nc(C)c(Cl)cc1S(=O)(=O)Nc1ccc(F)c(-c2ccc3c(-c4ncc[nH]4)n[nH]c3c2F)c1F [Example 3DD, 5-chloro-N-(2,4-difluoro-3-(7-fluoro-3-(1H-imidazol-2-yl)-1H-indazol-6-yl)phenyl)-2-methoxy-6-methylpyridine-3-sulfonamide]",< 500
2,"COc1ncc(CO)cc1S(=O)(=O)Nc1ccc(F)c(-c2ccc3c(C(N)=O)n[nH]c3c2F)c1F [Example 3DE, 6-(2,6-difluoro-3-((5-(hydroxylmethyl)-2-methoxy-pyridine)-3-sulfonamido)-phenyl)-7-fluoro-1H-indazole-3-carboxamide]",2500 to 10000
3,"COc1ncc(Cl)cc1S(=O)(=O)Nc1ccc(F)c(-c2ccc3c(C(=O)Nc4cn[nH]n4)n[nH]c3c2F)c1F [Example 3DF, 6-(3-((5-chloro-2-methoxy-pyridine)-3-sulfonamido)-2,6-difluorophenyl)-7-fluoro-1H-(2H-1,2,3-triazol-4-yl)-1H-indazole-3-carboxamide]",500 to 2500
4,"Cc1ccc(S(=O)(=O)Nc2ccc(F)c(-c3ccc4c(C(=O)Nc5cnoc5)n[nH]c4c3F)c2F)c(C)n1 [Example 3DG, 6-(3-((2,6-dimethylpyridine)-3-sulfonamido)-2,6-difluoro-phenyl)-7-fluoro-N-(isoxazol-4-yl)-1H-indazole-3-carboxamide]",< 500
5,"Cc1ccc(S(=O)(=O)Nc2ccc(F)c(-c3ccc4c(C(=O)Nc5cnn(C)c5)n[nH]c4c3F)c2F)c(C)n1 [Example 3DH, 6-(3-((2,6-dimethylpyridine)-3-sulfonamido)-2,6-difluoro-phenyl)-7-fluoro-N-(1-methyl-1H-pyrazol-4-yl)-1H-indazole-3-carboxamide]",< 500
6,"Cc1ccc(S(=O)(=O)Nc2ccc(F)c(-c3ccc4c(C(=O)Nc5cn[nH]c5)n[nH]c4c3F)c2F)c(C)n1 [Example 3DI, 6-(3-((2,6-dimethylpyridine)-3-sulfonamido)-2,6-difluoro-phenyl)-7-fluoro-N-(1H-pyrazol-4-yl)-1H-indazole-3-carboxamide]",< 500
7,"COc1ncc(C#N)cc1S(=O)(=O)Nc1ccc(F)c(-c2ccc3c(-c4ncc[nH]4)n[nH]c3c2F)c1F [Example 3DJ, 5-cyano-N-(2,4-difluoro-3-(7-fluoro-3-(1H-imidazol-2-yl)-1H-indazol-6-yl)phenyl)-2-methoxypyridine-3-sulfonamide]",< 500
8,"COc1nc(C)c(C#N)cc1S(=O)(=O)Nc1ccc(F)c(-c2ccc3c(-c4ncc[nH]4)n[nH]c3c2F)c1F [Example 3DK, 5-cyano-N-(2,4-difluoro-3-(7-fluoro-3-(1H-imidazol-2-yl)-1H-indazol-6-yl)phenyl)-2-methoxy-6-methylpyridine-3-sulfonamide]",< 500
9,"Cc1ccc(S(=O)(=O)Nc2ccc(F)c(-c3ccc4c(C(N)=O)n[nH]c4c3F)c2F)c(C)n1 [Example 3DL, 6-(3-((2,6-dimethylpyridine)-3-sulfonamido)-2,6-difluoro-phenyl)-7-fluoro-1H-indazole-3-carboxamide]",500 to 2500
10,"COc1nc(C)c(Cl)cc1S(=O)(=O)Nc1ccc(F)c(-c2ccc3c(C(=O)NCCCN(C)C)n[nH]c3c2F)c1F [Example 3DN, 6-(3-((5-chloro-2-methoxy-6-methylpyridine)-3-sulfon-amido)-2,6-difluorophenyl)-N-(3-(dimethylamino)propyl)-7-fluoro-1H-indazole-3-carboxamide]",< 500
11,"COc1nc(C)c(Cl)cc1S(=O)(=O)Nc1ccc(F)c(-c2ccc3c(C(=O)NCCCO)n[nH]c3c2F)c1F [Example 3DO, 6-(3-((5-chloro-2-methoxy-6-methylpyridine)-3-sulfon-amido)-2,6-difluorophenyl)-7-fluoro-N-(3-hydroxypropyl)-1H-indazole-3-carboxamide]",< 500
12,"COc1ncc(C#N)cc1S(=O)(=O)Nc1cc(F)cc(-c2ccc3c(C(=O)NCCCO)n[nH]c3c2F)c1F [Example 3DP, 6-(3-((5-cyano-2-methoxy-pyridine)-3-sulfonamido)-2,5-difluorophenyl)-7-fluoro-N-(3-hydroxypropyl)-1H-indazole-3-carboxamide]",< 500
